Earlier results, collected in patent US20240335441A1, “METHOD OF TREATING POSTTRAUMATIC STRESS DISORDER” (Jazz Pharmaceuticals Ireland Limited, priority 2021, published 2024).

Key:
[1] = tested on: healthy volunteers; details: placebo-controlled
[2] = tested on: men with cannabis use disorder (CUD); details: compared to placebo

## O=C(Nc1cccnn1)N1CCC(=Cc2cccc(Oc3ccc(C(F)(F)F)cn3)c2)CC1 [Compound A, N-Pyridazin-3-yl-4-{3-[5-(trifluoromethyl)-2-pyridyloxy]benzylidene}piperidine-1-carboxamide]
[1]
  negative affect in response to an aversive stimulus: blunted
  recall of fear extinction memory: enhanced
[2]
  self-reported overall sleep: improved
  slow wave sleep as measured by polysomnography: significantly increased
